This passage reports IC50 and inhibition results from ChEMBL document CHEMBL4196184, “Colocynthenins A-D, Ring-A seco-Cucurbitane Triterpenoids from the Fruits of Citrullus colocynthis” (J Nat Prod, 2018).

The source made the active and inactive calls. No cut-off for these calls is given here.

T1 sequence (P22303 whole entry): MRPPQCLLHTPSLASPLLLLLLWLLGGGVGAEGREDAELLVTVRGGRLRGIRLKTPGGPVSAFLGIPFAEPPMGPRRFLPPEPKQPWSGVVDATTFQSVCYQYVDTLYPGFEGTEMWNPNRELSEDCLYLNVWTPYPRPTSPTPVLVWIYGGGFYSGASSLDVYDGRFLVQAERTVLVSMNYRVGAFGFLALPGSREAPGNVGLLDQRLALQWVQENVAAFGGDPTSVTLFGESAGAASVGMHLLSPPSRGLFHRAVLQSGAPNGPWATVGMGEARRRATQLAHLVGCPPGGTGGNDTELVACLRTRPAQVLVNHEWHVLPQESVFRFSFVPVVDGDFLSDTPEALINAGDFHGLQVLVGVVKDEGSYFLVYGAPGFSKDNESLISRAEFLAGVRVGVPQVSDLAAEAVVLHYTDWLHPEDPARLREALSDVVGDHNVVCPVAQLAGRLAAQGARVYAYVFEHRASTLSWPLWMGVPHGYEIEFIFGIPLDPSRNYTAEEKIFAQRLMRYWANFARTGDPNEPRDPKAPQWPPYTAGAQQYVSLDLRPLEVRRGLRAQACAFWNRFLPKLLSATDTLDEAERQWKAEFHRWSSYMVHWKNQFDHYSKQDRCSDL

One experiment has as its target T1, Acetylcholinesterase (Homo sapiens, UniProt P22303). Kind of experiment: Inhibition of AChE (unknown origin) using acetylthiocholine iodide as substrate preincubated for 10 mins followed by substrate addition measured after 10 mins by Ellman's method.
The compound `CC(=O)OC(C)(C)/C=C/C(=O)[C@](C)(O)[C@H]1[C@H](O)C[C@@]2(C)[C@@H]3CC=C(C(C)(C)C(=O)O)C4=CC(=O)O[C@](O)(C[C@]12C)[C@@]43C` yielded an IC50 of 2600 nM.
Regarding `CC(=O)OC(C)(C)/C=C/C(=O)[C@](C)(O)[C@H]1[C@H](O)C[C@@]2(C)[C@@H]3CC=C(C(C)(C)C(=O)O)/C(=C\C(=O)O)[C@]3(C)C(=O)C[C@]12C`, the IC50 turned out to be 3100 nM.

Another experiment has as its target T1, Acetylcholinesterase. Nature of the experiment: Inhibition of AChE (unknown origin) at 10 uM using acetylthiocholine iodide as substrate preincubated for 10 mins followed by substrate addition measured after 10 mins by Ellman's method.
For `CC(=O)OC(C)(C)/C=C/C(=O)[C@](C)(O)[C@H]1[C@H](O)C[C@@]2(C)[C@@H]3CC=C4[C@@H](C=C(O)C(=O)C4(C)C)[C@]3(C)C(=O)C[C@]12C`, the inhibition result is “inactive”.
`CC(=O)OC(C)(C)/C=C/C(=O)[C@](C)(O)[C@H]1[C@H](O)C[C@@]2(C)[C@@H]3[C@@H](O)C=C4[C@@H](C=C(O[C@@H]5O[C@H](CO)[C@@H](O)[C@H](O)[C@H]5O)C(=O)C4(C)C)[C@]3(C)C(=O)C[C@]12C`: the inhibition entry is “inactive”.
Consider `COC(=O)C(C)(C)C1=CC[C@@H]2[C@@](C)(C(=O)C[C@]3(C)[C@@H]([C@@](C)(O)C(=O)/C=C/C(C)(C)OC(C)=O)[C@H](O)C[C@@]23C)/C1=C/C(=O)O`, for which the inhibition entry is “inactive”.
For the compound `CC(=O)OC(C)(C)/C=C/C(=O)[C@](C)(O)[C@H]1[C@H](O)C[C@@]2(C)[C@@H]3CC=C(C(C)(C)C(=O)O)/C(=C\C#N)[C@]3(C)C(=O)C[C@]12C`, the inhibition entry is “inactive”.
In the case of `CC(=O)OC(C)(C)CCC(=O)[C@](C)(O)[C@H]1[C@H](O)C[C@@]2(C)[C@@H]3CC=C4[C@@H](C[C@H](O)C(=O)C4(C)C)[C@]3(C)C(=O)C[C@]12C`, the inhibition result was “inactive”.
Consider `CC(=O)OC(C)(C)/C=C/C(=O)[C@](C)(O)[C@H]1[C@H](O)C[C@@]2(C)[C@@H]3CC=C4[C@@H](C[C@H](O)C(=O)C4(C)C)[C@]3(C)C(=O)C[C@]12C`, for which the inhibition entry was “inactive”.
Take `CC(=O)OC(C)(C)CCC(=O)[C@](C)(O)[C@H]1[C@H](O)C[C@@]2(C)[C@@H]3CC=C4[C@@H](C[C@H](O[C@@H]5O[C@H](CO)[C@@H](O)[C@H](O)[C@H]5O)C(=O)C4(C)C)[C@]3(C)C(=O)C[C@]12C`: the inhibition entry was “inactive”.
For `CC(=O)OC(C)(C)/C=C/C(=O)[C@](C)(O)[C@H]1[C@H](O)C[C@@]2(C)[C@@H]3CC=C4[C@@H](C[C@H](O[C@@H]5O[C@H](CO)[C@@H](O)[C@H](O)[C@H]5O)C(=O)C4(C)C)[C@]3(C)C(=O)C[C@]12C`, the inhibition result was “inactive”.
As to `CC(=O)OC[C@H]1O[C@@H](OC2=C[C@@H]3C(=CC[C@@H]4[C@@]3(C)C(=O)C[C@]3(C)[C@@H]([C@@](C)(O)C(=O)/C=C/C(C)(C)OC(C)=O)[C@H](O)C[C@@]43C)C(C)(C)C2=O)[C@H](O)[C@@H](O)[C@@H]1O`, the inhibition result was “inactive”.
